Earlier results as cited in paper PMC3433420 (PLoS ONE, 2012).
Where two headings read alike, the source gives them in different places.

Experiments:
SH2 and PTB domains = conditions: most recent PM interactions, cited from earlier work
Source text: Supplement pone.0044471.s022.xlsx, sheet "Most recent PM interactions" | column: Kd || Supplement pone.0044471.s022.xlsx, sheet "All original PM interactions" | column: Kd

GRB7 SH2 domain = GRB7 SH2 domain (Homo sapiens, UniProt Q14451); set-up: 6X His; thioredoxin; made in house; host or cells: E. coli BL21(DE3)pLysS; conditions: Protein GRB7, most recent PM interactions, cited from earlier work
Sequence of GRB7 SH2 domain (Q14451 431-527 limits assumed): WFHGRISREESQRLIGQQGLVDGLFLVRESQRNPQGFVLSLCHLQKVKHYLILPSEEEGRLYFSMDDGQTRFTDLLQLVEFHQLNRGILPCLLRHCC

DDTFLPVPEpYINQSVPKd [ErbB1 1092]
Kd (SH2 and PTB domains; Protein ABL1, ref Jones et al. 2006 / Kaushansky et al. Mol Biosys 2008 / Kaushansky et al. Chem and Biol 2008): 920 nM | Kd (SH2 and PTB domains; Protein ABL2, ref Jones et al. 2006 / Kaushansky et al. Mol Biosys 2008 / Kaushansky et al. Chem and Biol 2008): 150 nM | Kd (SH2 and PTB domains; Protein BLK, ref Jones et al. 2006 / Kaushansky et al. Mol Biosys 2008 / Kaushansky et al. Chem and Biol 2008): 300 nM | Kd (SH2 and PTB domains; Protein GRB2, ref Jones et al. 2006 / Kaushansky et al. Mol Biosys 2008 / Kaushansky et al. Chem and Biol 2008): 200 nM | Kd (SH2 and PTB domains; Protein GRB10, ref Jones et al. 2006 / Kaushansky et al. Mol Biosys 2008 / Kaushansky et al. Chem and Biol 2008): 1300 nM | Kd (SH2 and PTB domains; Protein ITK, ref Jones et al. 2006 / Kaushansky et al. Mol Biosys 2008 / Kaushansky et al. Chem and Biol 2008): 220 nM | Kd (SH2 and PTB domains; Protein NCK2, ref Jones et al. 2006 / Kaushansky et al. Mol Biosys 2008 / Kaushansky et al. Chem and Biol 2008): 1100 nM | Kd (SH2 and PTB domains; Protein PIK3R1-N, ref Jones et al. 2006 / Kaushansky et al. Mol Biosys 2008 / Kaushansky et al. Chem and Biol 2008): 1080 nM | Kd (SH2 and PTB domains; Protein PIK3R1-NC, ref Jones et al. 2006 / Kaushansky et al. Mol Biosys 2008 / Kaushansky et al. Chem and Biol 2008): 670 nM | Kd (SH2 and PTB domains; Protein PIK3R2-N, ref Jones et al. 2006 / Kaushansky et al. Mol Biosys 2008 / Kaushansky et al. Chem and Biol 2008): 450 nM | Kd (SH2 and PTB domains; Protein PIK3R2-NC, ref Jones et al. 2006 / Kaushansky et al. Mol Biosys 2008 / Kaushansky et al. Chem and Biol 2008): 1410 nM | Kd (SH2 and PTB domains; Protein PIK3R3-N, ref Jones et al. 2006 / Kaushansky et al. Mol Biosys 2008 / Kaushansky et al. Chem and Biol 2008): 510 nM | Kd (SH2 and PTB domains; Protein PIK3R3-NC, ref Jones et al. 2006 / Kaushansky et al. Mol Biosys 2008 / Kaushansky et al. Chem and Biol 2008): 1020 nM | Kd (SH2 and PTB domains; Protein PLCG2-NC, ref Jones et al. 2006 / Kaushansky et al. Mol Biosys 2008 / Kaushansky et al. Chem and Biol 2008): 1630 nM | Kd (SH2 and PTB domains; Protein RASA1-N, ref Jones et al. 2006 / Kaushansky et al. Mol Biosys 2008 / Kaushansky et al. Chem and Biol 2008): 180 nM | Kd (SH2 and PTB domains; Protein SRC, ref Jones et al. 2006 / Kaushansky et al. Mol Biosys 2008 / Kaushansky et al. Chem and Biol 2008): 1790 nM | Kd (SH2 and PTB domains; Protein SYK-C, ref Jones et al. 2006 / Kaushansky et al. Mol Biosys 2008 / Kaushansky et al. Chem and Biol 2008): 1920 nM | Kd (SH2 and PTB domains; Protein SYK-NC, ref Jones et al. 2006 / Kaushansky et al. Mol Biosys 2008 / Kaushansky et al. Chem and Biol 2008): 910 nM | Kd (SH2 and PTB domains; Protein VAV2, ref Jones et al. 2006 / Kaushansky et al. Mol Biosys 2008 / Kaushansky et al. Chem and Biol 2008): 540 nM | Kd (SH2 and PTB domains; Protein YES1, ref Jones et al. 2006 / Kaushansky et al. Mol Biosys 2008 / Kaushansky et al. Chem and Biol 2008): 340 nM | Kd (GRB7 SH2 domain; ref Jones et al. 2006 / Kaushansky et al. Mol Biosys 2008 / Kaushansky et al. Chem and Biol 2008): 1990 nM

EHKDNIGSQpYLLNWCVQd [ErbB1 813]
Kd (SH2 and PTB domains; Protein ABL2, ref Kaushansky et al. Mol Biosys 2008): 200 nM | Kd (SH2 and PTB domains; Protein GRB10, ref Kaushansky et al. Mol Biosys 2008): 350 nM | Kd (SH2 and PTB domains; Protein ITK, ref Kaushansky et al. Mol Biosys 2008): 310 nM | Kd (SH2 and PTB domains; Protein NCK2, ref Kaushansky et al. Mol Biosys 2008): 200 nM | Kd (SH2 and PTB domains; Protein PIK3R1-C, ref Kaushansky et al. Mol Biosys 2008): 1850 nM | Kd (SH2 and PTB domains; Protein PIK3R1-NC, ref Kaushansky et al. Mol Biosys 2008): 1820 nM | Kd (SH2 and PTB domains; Protein PIK3R3-NC, ref Kaushansky et al. Mol Biosys 2008): 1870 nM | Kd (SH2 and PTB domains; Protein RASA1-C, ref Kaushansky et al. Mol Biosys 2008): 1950 nM | Kd (SH2 and PTB domains; Protein RASA1-NC, ref Kaushansky et al. Mol Biosys 2008): 160 nM | Kd (SH2 and PTB domains; Protein SH2D1B, ref Kaushansky et al. Mol Biosys 2008): 1600 nM | Kd (SH2 and PTB domains; Protein SH2D3C, ref Kaushansky et al. Mol Biosys 2008): 50 nM | Kd (SH2 and PTB domains; Protein SHB, ref Kaushansky et al. Mol Biosys 2008): 280 nM | Kd (SH2 and PTB domains; Protein SHE, ref Kaushansky et al. Mol Biosys 2008): 1380 nM | Kd (SH2 and PTB domains; Protein SHF, ref Kaushansky et al. Mol Biosys 2008): 1060 nM | Kd (SH2 and PTB domains; Protein SRC, ref Kaushansky et al. Mol Biosys 2008): 80 nM | Kd (SH2 and PTB domains; Protein SYK-NC, ref Kaushansky et al. Mol Biosys 2008): 240 nM | Kd (SH2 and PTB domains; Protein TENC1, ref Kaushansky et al. Mol Biosys 2008): 1150 nM | Kd (SH2 and PTB domains; Protein TNS3, ref Kaushansky et al. Mol Biosys 2008): 1890 nM | Kd (SH2 and PTB domains; Protein VAV1, ref Kaushansky et al. Mol Biosys 2008): 370 nM | Kd (SH2 and PTB domains; Protein VAV2, ref Kaushansky et al. Mol Biosys 2008): 470 nM | Kd (SH2 and PTB domains; Protein VAV3, ref Kaushansky et al. Mol Biosys 2008): 960 nM | Kd (SH2 and PTB domains; Protein YES1, ref Kaushansky et al. Mol Biosys 2008): 22 nM | Kd (GRB7 SH2 domain; ref Kaushansky et al. Mol Biosys 2008): 460 nM

TEEEDEDEEpYEYMNRRR [ErbB3 1197]
Kd (SH2 and PTB domains; Protein ABL1, ref Jones et al. 2006 / Kaushansky et al. Chem and Biol 2008): 1430 nM | Kd (SH2 and PTB domains; Protein ABL2, ref Jones et al. 2006 / Kaushansky et al. Chem and Biol 2008): 1110 nM | Kd (SH2 and PTB domains; Protein BLK, ref Jones et al. 2006 / Kaushansky et al. Chem and Biol 2008): 70 nM | Kd (SH2 and PTB domains; Protein FGR, ref Jones et al. 2006 / Kaushansky et al. Chem and Biol 2008): 710 nM | Kd (SH2 and PTB domains; Protein LYN, ref Jones et al. 2006 / Kaushansky et al. Chem and Biol 2008): 1070 nM | Kd (SH2 and PTB domains; Protein SRC, ref Jones et al. 2006 / Kaushansky et al. Chem and Biol 2008): 870 nM | Kd (SH2 and PTB domains; Protein SYK-NC, ref Jones et al. 2006 / Kaushansky et al. Chem and Biol 2008): 890 nM | Kd (SH2 and PTB domains; Protein YES1, ref Jones et al. 2006 / Kaushansky et al. Chem and Biol 2008): 130 nM | Kd (GRB7 SH2 domain; ref Jones et al. 2006 / Kaushansky et al. Chem and Biol 2008): 130 nM
